This note sets out measurements from PubChem BioAssay AID624129 (Sanford-Burnham Center for Chemical Genomics, 2012).

What all share (assay): CXCR6 receptor antagonists, dose response, cell-based, beta-arrestin, DiscoveRx, APJ panel, uHTS hits (AID 624129)
Assay [1] concerns the target Apelin receptor (Homo sapiens) (UniProt P35414). As to conditions: CXCR6 beta-arrestin (DiscoveRx) antagonist cell assay, APJ.
Assay [2] has as its target Beta-galactosidase (Escherichia coli) (UniProt Q8VNN2). As to conditions: CXCR6 beta-arrestin (DiscoveRx) antagonist cell assay, b-galactosidase.
The target in assay [3] is C-C chemokine receptor type 6 (Homo sapiens) (UniProt P51684). The note with it: CXCR6 beta-arrestin (DiscoveRx) antagonist cell assay.
Assay [4] addresses C-X-C chemokine receptor type 6 (Homo sapiens) (UniProt O00574). As to conditions: CXCR6 beta-arrestin (DiscoveRx) antagonist cell assay; for inhibition: CXCR6, run 1, dose range 2, at 80 µM (top of the series).
[5] abbreviates: dose range 1, mean IC50 across replicates.
Setting [6] is: CCR6, dose range 1, mean IC50 across replicates.
Where [7] appears, read: CXCR6, dose range 1, mean IC50 across replicates.

SMILES strings stand for the structures. Activity calls are given as the source filed them. The rule behind the calls is not given here.

C-X-C chemokine receptor type 6 (Homo sapiens), sequence (O00574 whole entry, looked up): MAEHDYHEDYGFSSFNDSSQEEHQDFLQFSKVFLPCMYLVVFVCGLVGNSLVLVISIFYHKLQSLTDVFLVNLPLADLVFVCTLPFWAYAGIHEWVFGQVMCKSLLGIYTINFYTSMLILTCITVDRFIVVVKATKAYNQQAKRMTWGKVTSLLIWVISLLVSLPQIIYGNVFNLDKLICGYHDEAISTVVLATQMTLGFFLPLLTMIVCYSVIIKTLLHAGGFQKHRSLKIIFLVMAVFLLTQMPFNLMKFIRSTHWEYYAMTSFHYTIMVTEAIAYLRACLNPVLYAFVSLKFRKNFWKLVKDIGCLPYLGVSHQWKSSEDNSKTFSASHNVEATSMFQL
Beta-galactosidase (Escherichia coli), sequence (Q8VNN2 whole entry, looked up): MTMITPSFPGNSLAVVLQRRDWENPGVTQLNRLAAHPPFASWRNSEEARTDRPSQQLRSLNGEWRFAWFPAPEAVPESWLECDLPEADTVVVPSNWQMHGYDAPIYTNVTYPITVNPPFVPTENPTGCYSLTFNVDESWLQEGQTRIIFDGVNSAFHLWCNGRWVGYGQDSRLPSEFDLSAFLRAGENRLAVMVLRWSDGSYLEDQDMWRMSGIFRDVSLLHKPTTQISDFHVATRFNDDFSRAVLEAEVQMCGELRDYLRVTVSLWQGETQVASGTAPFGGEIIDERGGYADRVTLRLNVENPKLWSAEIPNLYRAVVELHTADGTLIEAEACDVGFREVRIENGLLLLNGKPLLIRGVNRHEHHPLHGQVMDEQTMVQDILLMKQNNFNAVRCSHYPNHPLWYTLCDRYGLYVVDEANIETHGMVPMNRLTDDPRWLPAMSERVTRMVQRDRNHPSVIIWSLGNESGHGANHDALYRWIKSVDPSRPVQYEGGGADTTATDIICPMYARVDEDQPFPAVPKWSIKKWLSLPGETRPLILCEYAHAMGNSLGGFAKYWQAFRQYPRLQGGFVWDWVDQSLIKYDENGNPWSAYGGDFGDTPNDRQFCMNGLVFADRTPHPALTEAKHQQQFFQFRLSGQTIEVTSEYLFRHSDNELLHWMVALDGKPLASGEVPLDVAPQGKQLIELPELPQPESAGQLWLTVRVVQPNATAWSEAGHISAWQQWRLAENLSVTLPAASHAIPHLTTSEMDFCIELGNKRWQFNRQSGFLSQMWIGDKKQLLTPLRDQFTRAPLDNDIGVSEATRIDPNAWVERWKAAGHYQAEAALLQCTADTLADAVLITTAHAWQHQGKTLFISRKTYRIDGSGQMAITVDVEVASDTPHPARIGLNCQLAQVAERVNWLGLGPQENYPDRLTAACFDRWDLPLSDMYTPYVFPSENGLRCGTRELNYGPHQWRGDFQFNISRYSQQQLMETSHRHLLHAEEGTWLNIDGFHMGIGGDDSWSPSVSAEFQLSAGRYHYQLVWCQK

Consider `COC(=O)c1ccc2c(c1)C(C)(C)C(/C=C/c1ccc(OC)c(OC)c1OC)=[N+]2C`, for which the IC50 (as a rule, the concentration that inhibits the measured activity by half) in assay [1] (dose range 1) is 15.1 µM; in assay [1] (setting [5]), 15 µM; in assay [1] (run 2, dose range 1) it was 14.3 µM; in assay [1] (run 3, dose range 1) it was 15.8 µM; in assay [2] (dose range 1), > 80 µM (inactive); in assay [2] (setting [5]), more than 80 µM. In addition, the concentration for half-maximal inhibition (IC50) in assay [3] (CCR6, dose range 1) was 7.5 µM; in assay [3] (setting [6]), 9.27 µM; in assay [3] (CCR6, run 2, dose range 1), 11 µM; in assay [4] (CXCR6, dose range 1), 11.4 µM; in assay [4] (setting [7]), 9.1 µM; in assay [4] (CXCR6, run 1, dose range 2), 7.35 µM. For the same compound, the IC50 amounted to 10.4 µM in assay [4] (CXCR6, run 2, dose range 1) and 7.23 µM in assay [4] (CXCR6, run 2, dose range 2).

Regarding `FC(F)(F)c1cnc(NNC(=S)Nc2ccc(Cl)cc2)c(Cl)c1`, the IC50 in assay [1] (dose range 1) is 12.3 µM; in assay [1] (setting [5]), 12.6 µM; in assay [1] (run 2, dose range 1), 17 µM; in assay [1] (run 3, dose range 1), 8.55 µM; in assay [2] (dose range 1), 40.5 µM; in assay [2] (setting [5]), 40.5 µM. Besides, the 50% inhibitory concentration (IC50) in assay [3] (CCR6, dose range 1) was 10.9 µM; in assay [3] (setting [6]) it was 10.5 µM; in assay [3] (CCR6, run 2, dose range 1) it was 10.1 µM; in assay [4] (setting [7]), 12.1 µM; in assay [4] (CXCR6, run 1, dose range 2), 7.71 µM; in assay [4] (CXCR6, run 2, dose range 1) it was 14.5 µM. In assay [4] (CXCR6, run 2, dose range 2), this compound had an IC50 of 14.1 µM. Further, the IC50 result in assay [4] (CXCR6, dose range 1) is “inactive”.

Regarding `N=C1S/C(=C\c2ccco2)C(=O)N1c1nccs1`, the IC50 in assay [1] (dose range 1) is 8.43 µM; in assay [1] (setting [5]), 10.5 µM; in assay [1] (run 2, dose range 1), 12.4 µM; in assay [1] (run 3, dose range 1), 10.6 µM; in assay [2] (dose range 1) it was > 80 µM (inactive); in assay [2] (setting [5]) it was more than 80 µM. Besides, the IC50 was 8.13 µM in assay [3] (CCR6, dose range 1); 8.52 µM in assay [3] (setting [6]); 8.91 µM in assay [3] (CCR6, run 2, dose range 1); 10.4 µM in assay [4] (CXCR6, dose range 1); 8.97 µM in assay [4] (setting [7]); 6.4 µM in assay [4] (CXCR6, run 1, dose range 2). The half-inhibitory concentration (IC50) was 9.6 µM in assay [4] (CXCR6, run 2, dose range 1) and 9.45 µM in assay [4] (CXCR6, run 2, dose range 2).

In the case of `O=C(Nc1nc2c(F)cc(F)cc2s1)c1ccccn1`, the IC50 is 0.798 µM in assay [1] (dose range 1); 1.59 µM in assay [1] (setting [5]); 2.38 µM in assay [1] (run 2, dose range 1); more than 80 µM in assay [1] (run 3, dose range 1); > 80 µM (inactive) in assay [2] (dose range 1); more than 80 µM in assay [2] (setting [5]). The IC50 was 0.66 µM in assay [3] (CCR6, dose range 1); 1.03 µM in assay [3] (setting [6]); 1.4 µM in assay [3] (CCR6, run 2, dose range 1); 1.4 µM in assay [4] (CXCR6, dose range 1); 1.11 µM in assay [4] (setting [7]); 0.803 µM in assay [4] (CXCR6, run 1, dose range 2). Moreover, the IC50 in assay [4] (CXCR6, run 2, dose range 1) was 1.23 µM; in assay [4] (CXCR6, run 2, dose range 2), 1 µM.

As for `COC(=O)C1=C(c2ccc(-c3ccccc3)c(F)c2)C[C@@H]2CC[C@H]1N2C(=O)N1CCC(C)CC1`, the IC50 in assay [1] (dose range 1) was 8.49 µM; in assay [1] (setting [5]), 10.9 µM; in assay [1] (run 2, dose range 1), 13.8 µM; in assay [1] (run 3, dose range 1), 10.3 µM; in assay [2] (dose range 1), > 80 µM (inactive); in assay [2] (setting [5]), more than 80 µM. For the same compound, the IC50 is 4.9 µM in assay [3] (CCR6, dose range 1); 8.25 µM in assay [3] (setting [6]); 11.6 µM in assay [3] (CCR6, run 2, dose range 1); 11.2 µM in assay [4] (setting [7]); 10.8 µM in assay [4] (CXCR6, run 2, dose range 1). In addition, in assay [4] (CXCR6, dose range 1), the IC50 entry was “inactive”. Further, the inhibition – broadly, the share of the control response that was lost under treatment – in assay [4] stood at 88%.

`Cc1ccc(OCCN2C(=O)c3ccccc3C2=O)c([N+](=O)[O-])c1`: the IC50 in assay [1] (dose range 1) was 4.29 µM; in assay [1] (setting [5]), 5.81 µM; in assay [1] (run 2, dose range 1), 7.87 µM; in assay [1] (run 3, dose range 1), 5.29 µM; in assay [2] (dose range 1), > 80 µM (inactive); in assay [2] (setting [5]) it was more than 80 µM. The IC50 in assay [3] (CCR6, dose range 1) was 8.16 µM; in assay [3] (setting [6]), 6.82 µM; in assay [3] (CCR6, run 2, dose range 1), 5.48 µM; in assay [4] (CXCR6, dose range 1), 6.4 µM; in assay [4] (setting [7]) it was 5.31 µM; in assay [4] (CXCR6, run 1, dose range 2) it was 5.94 µM. The half-inhibitory concentration (IC50) in assay [4] (CXCR6, run 2, dose range 1) was found to be 4.95 µM; in assay [4] (CXCR6, run 2, dose range 2), 3.96 µM.

On to `CC(=O)Nc1ccc(NC(=O)c2nc(S(=O)(=O)Cc3cccc(C)c3)ncc2Cl)cc1`, for which the IC50 was 7.19 µM in assay [1] (dose range 1); 8.89 µM in assay [1] (setting [5]); 10.8 µM in assay [1] (run 2, dose range 1); 8.71 µM in assay [1] (run 3, dose range 1); > 80 µM (inactive) in assay [2] (dose range 1); more than 80 µM in assay [2] (setting [5]). Further, the IC50 in assay [3] (CCR6, dose range 1) is 6.61 µM; in assay [3] (setting [6]), 5.6 µM; in assay [3] (CCR6, run 2, dose range 1), 4.59 µM; in assay [4] (setting [7]), 4.95 µM; in assay [4] (CXCR6, run 2, dose range 1), 4.95 µM. For the same compound, the inhibition in assay [4] stood at 23.1%.
